What was measured:
[1] = target: T1, BRD4_2 (Homo sapiens, UniProt O60885); experiment: Fluorescence anisotropy binding assay (competition with FITC-labeled MS417 probe), BRD4_2; settings: FITC-MS417 probe 80 nM, PBS pH 7.4, 1 hour, 25° C.
T1 construct: contains two tandem bromodomains (BrD1 and BrD2)

[2] = target: T2, first bromodomain (BrD1) of human BRD4 (Homo sapiens, UniProt O60885); experiment: Fluorescence anisotropy binding assay (competition with FITC-labeled MS417 probe); settings: FITC-MS417 probe 80 nM, PBS pH 7.4, 1 hour, 25° C., read-out: BRD4_1 IC50
T2 construct: the first bromodomain (BrD1) of human BRD4; poly-His (cleaved yes); made in house
Experimental: Fluorescence Anisotropy Binding Assay
Expression and purification of the first bromodomain (BrD1) of human BRD4 in poly-His tag form was performed using a procedure described in the literature [See Zeng et al. Structure 16, 643-652 (2008) and Zhang et al., J Biol Chem 287, 28840-28851 (2012).] The protein was purified by using affinity chromatography on a nickel-IDA column (Invitrogen), followed by the removal of poly-His tag by thrombin cleavage.
Binding affinity of the newly synthesized compounds to the BRD4 BrD1 was assessed in a fluorescence anisotropy assay using a fluorescein isothiocyanate (FITC)-labeled MS417 as an assay probe (Zhang et al. 2008 op.cit.). Competition binding was performed with a BrD protein (0.25 to 1 μM) and the fluorescent probe (80 nM), and increasing concentration of unlabeled competing ligand in a PBS buffer (pH 7.4) in total volume of 80 μL. Measurements were obtained after 1 hour incubation of the fluorescent ligand and the protein at 25° C. with Safire 2 microplate reader (Tecan). In the assay, fluorescent ligand concentration was ≦2Kd, and protein concentration was set at which 50-80% of fluorescent ligand is bound. Dissociation constant of a competing ligand was calculated with the correction to Cheng-Prussoff equation introduced by Nicolovska-Coleska and colleagues [Nikolovska-Coleska, Z. et al., Anal Biochem 332, 261-273 (2004). Assuming one-site competitive binding model, the equation used to calculate Ki's from IC50 values recovered from fitting data using Prism:
[formula] where [I50] is the concentration of free inhibitor at 50% inhibition, [L50], the concentration of free labeled ligand at 50% inhibition, and [P0], concentration of free protein at 0% inhibition. Note that Kd for each protein-probe pair is the limit of resolvable Ki in a competition assay.

| SMILES | IC50 [1] [µM] | IC50 [2] [µM] |
| --- | --- | --- |
| CC1=C(N[C@H]2CC[C@H](C(=O)Nc3ccc(C)cc3)CC2)CCC1=O [Example 04-32, (1R,4R)-4-((2-methyl-3-oxocyclopent-1-en-1-yl)amino)-N-(p-tolyl)-cyclohexanecarboxamide] | > 10 | > 10 |
| CC1=C(N[C@H]2CC[C@@H](C(=O)Nc3ccccc3)CC2)CCC1=O [Example 04-36, (1S,4S)-4-((2-methyl-3-oxocyclopent-1-en-1-yl)amino)-N-phenylcyclohexane-carboxamide] | > 10 | > 10 |
| CC1=C(N[C@H]2CC[C@@H](C(=O)Nc3ccc(C)cc3)CC2)CCC1=O [Example 04-40] | > 10 | > 10 |
| CC1=C(Nc2ccc(C(=O)NC3CCCCC3)c(Cl)c2)CCC1=O [Example 04-43, 2-chloro-N-cyclohexyl-4-((2-methyl-3-oxocyclopent-1-en-1-yl)amino)benzamide] | > 10 | > 10 |
| CC1=C(Nc2ccc(C(=O)Nc3cccc4ccccc34)c(Cl)c2)CCC1=O [Example 04-44, 2-chloro-4-((2-methyl-3-oxocyclopent-1-en-1-yl)amino)-N-(naphthalen-1-yl)-benzamide] | > 10 | 1 to 10 |
| CC1=C(Nc2ccc(C(=O)Nc3ccccc3)c(Cl)c2)CCC1=O [Example 04-45, 2-chloro-4-((2-methyl-3-oxocyclopent-1-en-1-yl)amino)-N-phenylbenzamide] | > 10 | > 10 |
| COc1ccccc1NC(=O)c1ccc(NC2=C(C)C(=O)CC2)cc1Cl [Example 04-46, 2-chloro-N-(2-methoxyphenyl)-4-((2-methyl-3-oxocyclopent-1-en-1-yl)amino)benzamide] | > 10 | 1 to 10 |
| COc1cccc(NC(=O)c2ccc(NC3=C(C)C(=O)CC3)cc2Cl)c1 [Example 04-47, 2-chloro-N-(3-methoxyphenyl)-4-((2-methyl-3-oxocyclopent-1-en-1-yl)amino)benzamide] | > 10 | > 10 |
| COc1ccc(NC(=O)c2ccc(NC3=C(C)C(=O)CC3)cc2Cl)cc1 [Example 04-48, 2-chloro-N-(4-methoxyphenyl)-4-((2-methyl-3-oxocyclopent-1-en-1-yl)amino)-benzamide] | 1 to 10 | 1 to 10 |
| CC1=C(Nc2ccc(C(=O)Nc3ccccc3C)c(Cl)c2)CCC1=O [Example 04-49, 2-chloro-4-((2-methyl-3-oxocyclopent-1-en-1-yl)amino)-N-(o-tolyl)benzamide] | > 10 | 1 to 10 |
| CC1=C(Nc2ccc(C(=O)Nc3cccc(C)c3)c(Cl)c2)CCC1=O [Example 04-50, 2-chloro-4-((2-methyl-3-oxocyclopent-1-en-1-yl)amino)-N-(m-tolyl)benzamide] | > 10 | > 10 |
| CC1=C(Nc2ccc(C(=O)Nc3ccc(C)cc3)c(Cl)c2)CCC1=O [Example 04-51, 2-chloro-4-((2-methyl-3-oxocyclopent-1-en-1-yl)amino)-N-(p-tolyl)benzamide] | > 10 | > 10 |
| CC1=C(Nc2ccc(C(=O)Nc3cccc(F)c3)c(Cl)c2)CCC1=O [Example 04-52, 2-chloro-N-(3-fluorophenyl)-4-((2-methyl-3-oxocyclopent-1-en-1-yl)amino)-benzamide] | > 10 | > 10 |
| CNC(=O)c1ccc(NC2=C(C)C(=O)CC2)c(OC)c1 [Example 04-53, 3-methoxy-N-methyl-4-((2-methyl-3-oxocyclopent-1-en-1-yl)amino)benzamide] | 1 to 10 | 1 to 10 |
| COc1cc(C(=O)NC2CCCCC2)ccc1NC1=C(C)C(=O)CC1 [Example 04-54, N-cyclohexyl-3-methoxy-4-((2-methyl-3-oxocyclopent-1-en-1-yl)amino)-benzamide] | 1 to 10 | 1 to 10 |
| COc1cc(C(=O)Nc2cccc3ccccc23)ccc1NC1=C(C)C(=O)CC1 [Example 04-55, 3-methoxy-4-((2-methyl-3-oxocyclopent-1-en-1-yl)amino)-N-(naphthalen-1-yl)-benzamide] | 1 to 10 | 1 to 10 |
| COc1cc(C(=O)Nc2ccccc2)ccc1NC1=C(C)C(=O)CC1 [Example 04-56, 3-methoxy-4-((2-methyl-3-oxocyclopent-1-en-1-yl)amino)-N-phenylbenzamide] | 1 to 10 | 1 to 10 |
| COc1ccccc1NC(=O)c1ccc(NC2=C(C)C(=O)CC2)c(OC)c1 [Example 04-57, 3-methoxy-N-(2-methoxyphenyl)-4-((2-methyl-3-oxocyclopent-1-en-1-yl)amino)-benzamide] | 1 to 10 | 1 to 10 |
| COc1cccc(NC(=O)c2ccc(NC3=C(C)C(=O)CC3)c(OC)c2)c1 [Example 04-58, 3-methoxy-N-(3-methoxyphenyl)-4-((2-methyl-3-oxocyclopent-1-en-1-yl)amino)-benzamide] | 1 to 10 | 1 to 10 |
| COc1ccc(NC(=O)c2ccc(NC3=C(C)C(=O)CC3)c(OC)c2)cc1 [Example 04-59, 3-methoxy-N-(4-methoxyphenyl)-4-((2-methyl-3-oxocyclopent-1-en-1-yl)amino)-benzamide] | 1 to 10 | 1 to 10 |
| COc1cc(C(=O)Nc2ccccc2C)ccc1NC1=C(C)C(=O)CC1 [Example 04-60, 3-methoxy-4-((2-methyl-3-oxocyclopent-1-en-1-yl)amino)-N-(o-tolyl)benzamide] | 1 to 10 | 1 to 10 |
| COc1cc(C(=O)Nc2cccc(C)c2)ccc1NC1=C(C)C(=O)CC1 [Example 04-61, 3-methoxy-4-((2-methyl-3-oxocyclopent-1-en-1-yl)amino)-N-(m-tolyl)benzamide] | 1 to 10 | 1 to 10 |
| COc1cc(C(=O)Nc2ccc(C)cc2)ccc1NC1=C(C)C(=O)CC1 [Example 04-62, 3-methoxy-4-((2-methyl-3-oxocyclopent-1-en-1-yl)amino)-N-(p-tolyl)benzamide] | 1 to 10 | 1 to 10 |
| CNC(=O)c1ccc(NC2=C(C)C(=O)CC2)cc1OC [Example 04-65] | 1 to 10 | 1 to 10 |
| COc1cc(NC2=C(C)C(=O)CC2)ccc1C(=O)NC1CCCCC1 [Example 04-66, N-cyclohexyl-2-methoxy-4-((2-methyl-3-oxocyclopent-1-en-1-yl)amino)-benzamide] | 1 to 10 | 1 to 10 |
| COc1cc(NC2=C(C)C(=O)CC2)ccc1C(=O)Nc1cccc2ccccc12 [Example 04-67, 2-methoxy-4-((2-methyl-3-oxocyclopent-1-en-1-yl)amino)-N-(naphthalen-1-yl)benzamide] | > 10 | < 1 |
| COc1cc(NC2=C(C)C(=O)CC2)ccc1C(=O)Nc1ccccc1 [Example 04-68, 2-methoxy-4-((2-methyl-3-oxocyclopent-1-en-1-yl)amino)-N-phenylbenzamide] | 1 to 10 | 1 to 10 |
| COc1ccccc1NC(=O)c1ccc(NC2=C(C)C(=O)CC2)cc1OC [Example 04-69, 2-methoxy-N-(2-methoxyphenyl)-4-((2-methyl-3-oxocyclopent-1-en-1-yl)amino)-benzamide] | > 10 | < 1 |
| COc1cccc(NC(=O)c2ccc(NC3=C(C)C(=O)CC3)cc2OC)c1 [Example 04-70, 2-methoxy-N-(3-methoxyphenyl)-4-((2-methyl-3-oxocyclopent-1-en-1-yl)amino)-benzamide] | 1 to 10 | 1 to 10 |

From patent US9884806B2, “Cyclic vinylogous amides as bromodomain inhibitors” (ICAHN SCHOOL OF MEDICINE AT MOUNT SINAI, priority 2013, dated 2018)
